Laboratory results reported in patent publication US4241065A, “Fluoro analogs of hydrocodone and oxycodone useful as analgesics, narcotic antagonists or both” (priority 1979, dated 1980).
Where two headings read alike, the source gives them in different places.

Key:
in vivo = test: in vivo; parameters: species or system mice (CF1 S female); conditions: sc, mouse
[1] = system: pain induced by phenylquinone (writhing syndrome); test: Phenylquinone writhing test (PQW), analgesic activity in mice; assay type: in vivo, mice (fasted female white mice)
Source text: Exp. Biol. Med. 95, 729 (1957). […] Rev. 11 115-145 (1947).

[2] = system: morphine-induced Straub tail in mice; test: Narcotic antagonist (anti-Straub tail) test in mice; assay type: in vivo; conditions: ip, 10 min; mouse, compound intraperitoneal, 10 min later 53 mg/kg morphine sulfate s.c.; compounds of the invention as hydrochloride salt; 135 mg/kg or higher = inactive; read-out: Antistraub Tail ED50 (Mouse ED50 Values)
[3] = system: Straub tail induced by morphine sulfate; test: Modified Straub Tail Antagonism test; assay type: in vivo, mice; conditions: Mus musculus, sc; test drug subcutaneous in 1% methyl cellulose with 1.25% Tween 80; morphine sulfate 35 mg/kg i.p. 5 min later; observed after 15 min for 5 min; read-out: ED 50 (modified Straub Tail Antagonism)
Procedure: The Straub Tail Antagonism test was modified by giving test drugs (in 1% methyl cellulose with 1.25% "Tween 80") subcutaneously, followed by intraperitoneal injection of morphine sulfate (at 35 mg/kg) 5 minutes after the test drug. […] ED 50's were calculated as above with a 95% confidence limit as described by Litchfield, J. Pharmacol. Exp. Ther. 96, 99 (1949).

[4] = subcutaneous, within 25 minutes after dosing, compounds of the invention as hydrochloride salt, 135 mg/kg or higher = inactive, read-out: Straub Tail ED50 (Mouse ED50 Values)
[5] = 0.5 h, mouse, oral, observed for 10 min commencing 30 min after administration, compounds of the invention as hydrochloride salt, 135 mg/kg or higher = inactive, read-out: PQW ED50 (Mouse ED50 Values, POW)

Compound | ED50 at 25 min (in vivo; [4]) [mg/kg] | ED50 [1, 5] [mg/kg] | ED50 [2] [mg/kg] | further results
COc1ccc2c3c1OC1C(F)C=CC4C(C2)N(C)CCC341 (stereo not drawn) [Ayer 3,137,701, reference compound] | 63 | – | – | –
COc1ccc2c3c1O[C@H]1[C@@H](O)C=C[C@H]4[C@@H](C2)N(C)CC[C@@]341 [Codeine PO4, reference compound] | 202 | – | – | –
COc1ccc2c3c1O[C@H]1C(F)=CC[C@H]4[C@@H](C2)N(C)CC[C@]314.Cl [Compound 2, 17-Methyl-6,7-didehydro-4,5-epoxy-6-fluoro-3-methoxymorphinan Hydrochloride] | – | 8.5 | – | –
COc1ccc2c3c1O[C@H]1C(F)(F)CC[C@H]4[C@@H](C2)N(C)CC[C@@]341.Cl [Compound 4, 17-Methyl-4,5-epoxy-6,6-difluoro-3-methoxymorphinan Hydrochloride] | 10 | – | > 81 | –
CN1CC[C@]23c4c5ccc(O)c4OC2C(F)=CC[C@H]3[C@H]1C5.Cl (stereo partly drawn) [Compound 6, 17-Methyl-6,7-didehydro-4,5-epoxy-6-fluoro-3-hydroxymorphinan Hydrochloride] | 17 | 8 | – | –
COc1ccc2c3c1OC1C(F)(F)CC[C@H]4[C@@H](C2)N(CC2CCC2)CC[C@]314.Cl (stereo partly drawn) [Compound 10, 17-Cyclobutylmethyl-4,5-epoxy-6,6-difluoro-3-methoxymorphinan Hydrochloride] | > 81 | – | – | –
COc1ccc2c3c1OC1C(F)(F)CC[C@H]4[C@@H](C2)N(CC2CC2)CC[C@]314 (stereo partly drawn) [Compound 15, 17-Cyclopropylmethyl-4,5-epoxy-6,6-difluoro-3-methoxymorphinan] | > 54 | – | – | –
COc1ccc2c3c1OC1C(F)=CC[C@H]4[C@@H](C2)N(CC2CC2)CC[C@]314 (stereo partly drawn) [Compound 16, 17-Cyclopropylmethyl-6,7-didehydro-4,5-epoxy-6-fluoro-3-methoxymorphinan] | > 135 | – | – | –
Oc1ccc2c3c1OC1C(F)(F)CC[C@H]4[C@@H](C2)N(CC2CC2)CC[C@]314 (stereo partly drawn) [Compound 17, 17-Cyclopropylmethyl-4,5-epoxy-6,6-difluoro-3-hydroxymorphinan] | > 54 | – | 0.003 | ED50 ([1]; 0.5 h, mouse, oral, * peak time value (maximum activity within 30 min of administration), compounds of the invention as hydrochloride salt, read-out: PQW ED50 (Mouse ED50 Values, POW), peak time value): 2.6 mg/kg; ED50 [3]: 0.0033 mg/kg
Cl.Oc1ccc2c3c1OC1C(F)=CC[C@H]4[C@@H](C2)N(CC2CC2)CC[C@]314 (stereo partly drawn) [Compound 18, 17-Cyclopropylmethyl-6,7-didehydro-4,5-epoxy-6-fluoro-3-hydroxymorphinan Hydrochloride] | > 135 | 7.2 | 0.18 | –
COc1ccc2c3c1O[C@H]1C(F)(F)CC[C@@]4(O)[C@@H](C2)N(CC2CCC2)CC[C@]314.Cl [Compound 26, 17-Cyclobutylmethyl-4,5α-epoxy-6,6-difluoro-14β-hydroxy-3-methoxymorphinan Hydrochloride] | > 135 | – | – | –
CC(=O)Oc1ccc2c3c1O[C@H]1C(F)=CC[C@H]4[C@@H](C2)N(CC2CC2)CC[C@]314 [Compound 29, 17-Cyclopropylmethyl-6,7-didehydro-4,5α-epoxy-6-fluoro-3-acetoxymorphinan] | > 18 | 1.3 | 0.0022 | ED50 ([1]; Mus musculus, sc, 0.25 h, subcutaneous, fifteen minutes after injection, read-out: ED50 (analgesic, subcutaneous injection)): 0.0016 mg/kg
CC(=O)Oc1ccc2c3c1O[C@H]1C(F)(F)CC[C@H]4[C@@H](C2)N(CC2CC2)CC[C@@]341 [Compound 30, 17-Cyclopropylmethyl-4,5α-epoxy-6,6-difluoro-3-acetoxymorphinan] | > 18 | 2.2 | 0.0031 | –
CN1CC[C@]23c4c5ccc(O)c4O[C@H]2[C@@H](O)C=C[C@H]3[C@H]1C5 [Morphine SO4, reference compound] | – | – | – | ED50 at 25 min (in vivo; 135 mg/kg): 48 mg/kg
CC(C)=CCN1CCC2(C)c3cc(O)ccc3CC1C2C (stereo not drawn) [Pentazocine, reference compound] | – | – | – | ED50 [3]: 1.9 mg/kg
